Patent US20170224662A1 (priority 2016, published 2017)
Converted amounts (≈) assume the structure as drawn. Where two headings read alike, the source gives them in different places.

How the values were obtained:
Format in all cases: physicochemical
[1] = physchem; details: aqueous buffer, thermodynamic from solid, read-out: Actual [CPMM] Concentration (maximum solubility)
Experimental: CPMM was evaluated for maximum solubility in aqueous pH 1-9 buffer solutions. CPMM was weighted into 1.0 mL of each solution, vortex mixed to solubilize, and placed on a shaker table until saturated. Additional CPMM was added and replaced on the shaker table until a saturated solution was obtained. The one exception was the pH 1 sample solution, which never reached saturation level due to the CPMM's high solubility at that pH range. Saturated solutions were centrifuged and the supernatants were analyzed by HPLC.

[2] = physchem; details: imidazole nitrogen in position 3; solubility analysis (log solubility curve) and titration
Text: The solubility of compounds as disclosed herein is pH-dependent. The imidazole nitrogen in position 3 of CPMM has a pKa of approximately 2.5, as determined by solubility analysis and titration. For example, CPMM is very water soluble at low pH, but solubility decreases with increasing pH, such that it is lower at pH 3-8.

[3] = physchem; details: for HPLC [CPMM] Concentration: diluted sample; for Actual [CPMM] Concentration: never saturated, stopped after 100 mg added
Experimental: CPMM solubility was also evaluated in common solvents: water, methanol, ethanol, acetonitrile, and isopropanol. CPMM was weighed into 1.0 mL of each solvent and vortex-mixed. Only the water sample was saturated with CPMM; the other solvents never achieved saturation due to their high CPMM solubility. The screening was stopped after 100 mg of bulk CPMM had been added. Table 2 lists the ABP-700 solubility results in common solvents.

[4] = Binary excipient screening: stability of CPMM 1 mg/mL in IV-compatible excipient solutions in 10 mM pH 3 phosphate buffer; details: for CPMM % Purity: t = 0
Experimental: CPMM was evaluated for compatibility with excipients that are suitable for IV administration. A buffer solution (phosphate at pH 3) was selected as the diluent for excipient screening studies. […] CPMM was solubilized in each excipient solution at 1 mg/mL.
While CPMM completely dissolved in the control sample within several minutes, many of the excipient solutions required overnight storage at 5° C. to solubilize the drug.
Each excipient sample solution was placed on a two-week stability study at 25° C./60% relative humidity and 40° C./75% relative humidity, and analyzed for CPMM purity at t=0, 1, and 2 weeks by comparing individual samples to their respective excipient blank solution.

For COC(=O)C1(OC(=O)c2cncn2[C@H](C)c2ccccc2)CC1 [CPMM, 1-(methoxycarbonyl)cyclopropyl-1-[(1R)-1-phenylethyl]-1H-imidazole-5-carboxylate], the solubility ([1]; 50 mM buffer pH 1 (phosphoric acid), actual pH 0.63, never saturated, not a true maximum solubility) was 404000 µg/mL (≈ 1280 mM), the solubility ([1]; 50 mM buffer pH 2 (phosphoric acid), actual pH 1.43) was 49400 µg/mL (≈ 157 mM) and the solubility ([1]; 50 mM buffer pH 3 (phosphoric acid), actual pH 2.62) was 3150 µg/mL (≈ 10 mM). It also gave a solubility ([1]; 50 mM buffer pH 4 (citric acid), actual pH 3.5) of 677 µg/mL (≈ 2.15 mM), a solubility ([1]; 50 mM buffer pH 5 (citric acid), actual pH 4.57) of 325 µg/mL (≈ 1.03 mM) and a solubility ([1]; 50 mM buffer pH 6 (citric acid), actual pH 5.55) of 284 µg/mL (≈ 0.903 mM). It also gave a solubility ([1]; 50 mM buffer pH 7 (phosphoric acid), actual pH 6.68) of 268 µg/mL (≈ 0.853 mM), a solubility ([1]; 50 mM buffer pH 8 (phosphoric acid), actual pH 7.48) of 260 µg/mL (≈ 0.827 mM) and a solubility ([1]; 50 mM buffer pH 9 (phosphoric acid), actual pH 8.81) of 279 µg/mL (≈ 0.888 mM). For the same compound, the pKa [2] was ~2.5, the “HPLC [CPMM] Concentration” value ([3]; Acetonitrile, dilution factor 166.67) was 474.2 µg/mL and the “Actual [CPMM] Concentration” value ([3]; Acetonitrile) was 79034.9 µg/mL. The “HPLC [CPMM] Concentration” value ([3]; Ethanol, dilution factor 166.67) was 534.3 µg/mL, the “Actual [CPMM] Concentration” value ([3]; Ethanol) was 89051.8 µg/mL and the “HPLC [CPMM] Concentration” value ([3]; Isopropanol, dilution factor 166.67) was 514.5 µg/mL. For the same compound, the “Actual [CPMM] Concentration” value ([3]; Isopropanol) was 85751.7 µg/mL, the “HPLC [CPMM] Concentration” value ([3]; Methanol, dilution factor 166.67) was 503.2 µg/mL and the “Actual [CPMM] Concentration” value ([3]; Methanol) was 83868.3 µg/mL. The “HPLC [CPMM] Concentration” value ([3]; Water, dilution factor 6.67) was 449.2 µg/mL, the solubility thermodynamic ([3]; thermodynamic from solid, Water, saturated, read-out: Actual [CPMM] Concentration) was 3000 µg/mL (≈ 9.53 mM) and the “Change in CPMM % Purity” value ([4]; Ascorbic Acid 0.5% in pH 3 buffer, 1 week 25° C./60% RH) was −14.4%. The “Change in CPMM % Purity” value ([4]; Ascorbic Acid 0.5% in pH 3 buffer, 1 week 40° C./75% RH) was −31.6%, the “Change in CPMM % Purity” value ([4]; Ascorbic Acid 0.5% in pH 3 buffer, 2 weeks 25° C./60% RH) was −26.4% and the “Change in CPMM % Purity” value ([4]; Ascorbic Acid 0.5% in pH 3 buffer, 2 weeks 40° C./75% RH) was −49.8%. For the same compound, the “CPMM % Purity” value ([4]; Ascorbic Acid 0.5% in pH 3 buffer) was 97.6%, the “Change in CPMM % Purity” value ([4]; Ascorbic Acid/Edetate Disodium Dihydrate 0.5%/0.05% in pH 3 buffer, 1 week 25° C./60% RH) was −2.2% and the “Change in CPMM % Purity” value ([4]; Ascorbic Acid/Edetate Disodium Dihydrate 0.5%/0.05% in pH 3 buffer, 1 week 40° C./75% RH) was −9.8%. For the same compound, the “Change in CPMM % Purity” value ([4]; Ascorbic Acid/Edetate Disodium Dihydrate 0.5%/0.05% in pH 3 buffer, 2 weeks 25° C./60% RH) was −4.2%, the “Change in CPMM % Purity” value ([4]; Ascorbic Acid/Edetate Disodium Dihydrate 0.5%/0.05% in pH 3 buffer, 2 weeks 40° C./75% RH) was −17.8% and the “CPMM % Purity” value ([4]; Ascorbic Acid/Edetate Disodium Dihydrate 0.5%/0.05% in pH 3 buffer) was 99.4%. For the same compound, the “Change in CPMM % Purity” value ([4]; Control: Water, 1 week 25° C./60% RH) was −0.9%, the “Change in CPMM % Purity” value ([4]; Control: Water, 1 week 40° C./75% RH) was −3.4% and the “CPMM % Purity” value ([4]; Control: Water) was 99.4%. For the same compound, the “Change in CPMM % Purity” value ([4]; Control: pH 3 Buffer, 1 week 25° C./60% RH) was −1.6%, the “Change in CPMM % Purity” value ([4]; Control: pH 3 Buffer, 1 week 40° C./75% RH) was −5.3% and the “Change in CPMM % Purity” value ([4]; Control: pH 3 Buffer, 2 weeks 25° C./60% RH) was −2.6%. The “Change in CPMM % Purity” value ([4]; Control: pH 3 Buffer, 2 weeks 40° C./75% RH) was −9.2%, the “CPMM % Purity” value ([4]; Control: pH 3 Buffer) was 99.5% and the “Change in CPMM % Purity” value ([4]; Dextrose 5% in pH 3 buffer, 1 week 25° C./60% RH) was −1.5%. The “Change in CPMM % Purity” value ([4]; Dextrose 5% in pH 3 buffer, 1 week 40° C./75% RH) was −5.2%, the “Change in CPMM % Purity” value ([4]; Dextrose 5% in pH 3 buffer, 2 weeks 25° C./60% RH) was −2.5% and the “Change in CPMM % Purity” value ([4]; Dextrose 5% in pH 3 buffer, 2 weeks 40° C./75% RH) was −9.0%. For the same compound, the “CPMM % Purity” value ([4]; Dextrose 5% in pH 3 buffer) was 99.4%, the “Change in CPMM % Purity” value ([4]; Ethanol 10% in pH 3 buffer, 1 week 25° C./60% RH) was −1.1% and the “Change in CPMM % Purity” value ([4]; Ethanol 10% in pH 3 buffer, 1 week 40° C./75% RH) was −3.2%. The “Change in CPMM % Purity” value ([4]; Ethanol 10% in pH 3 buffer, 2 weeks 25° C./60% RH) was −3.1%, the “Change in CPMM % Purity” value ([4]; Ethanol 10% in pH 3 buffer, 2 weeks 40° C./75% RH) was −7.0% and the “CPMM % Purity” value ([4]; Ethanol 10% in pH 3 buffer) was 99.5%. For the same compound, the “Change in CPMM % Purity” value ([4]; Glycerol 10% in pH 3 buffer, 1 week 25° C./60% RH) was −1.3%, the “Change in CPMM % Purity” value ([4]; Glycerol 10% in pH 3 buffer, 1 week 40° C./75% RH) was −4.7% and the “Change in CPMM % Purity” value ([4]; Glycerol 10% in pH 3 buffer, 2 weeks 25° C./60% RH) was −3.6%. The “Change in CPMM % Purity” value ([4]; Glycerol 10% in pH 3 buffer, 2 weeks 40° C./75% RH) was −9.8%, the “CPMM % Purity” value ([4]; Glycerol 10% in pH 3 buffer) was 99.4% and the “Change in CPMM % Purity” value ([4]; HPβCD 10% in pH 3 buffer, 1 week 25° C./60% RH) was −0.4%. The “Change in CPMM % Purity” value ([4]; HPβCD 10% in pH 3 buffer, 1 week 40° C./75% RH) was −1.6%, the “Change in CPMM % Purity” value ([4]; HPβCD 10% in pH 3 buffer, 2 weeks 25° C./60% RH) was −0.6% and the “Change in CPMM % Purity” value ([4]; HPβCD 10% in pH 3 buffer, 2 weeks 40° C./75% RH) was −2.5%. The “CPMM % Purity” value ([4]; HPβCD 10% in pH 3 buffer) was 99.4%, the “Change in CPMM % Purity” value ([4]; KCl 5% in pH 3 buffer, 1 week 25° C./60% RH) was −1.3% and the “Change in CPMM % Purity” value ([4]; KCl 5% in pH 3 buffer, 1 week 40° C./75% RH) was −4.8%. The “Change in CPMM % Purity” value ([4]; KCl 5% in pH 3 buffer, 2 weeks 25° C./60% RH) was −2.2%, the “Change in CPMM % Purity” value ([4]; KCl 5% in pH 3 buffer, 2 weeks 40° C./75% RH) was −8.2% and the “CPMM % Purity” value ([4]; KCl 5% in pH 3 buffer) was 99.4%. The “Change in CPMM % Purity” value ([4]; Lutrol F68 1% in pH 3 buffer, 1 week 25° C./60% RH) was −1.6%.
